Test system: HC11-NeuT mammary tumors
Test: In vivo efficacy in orthotopic HC11-NeuT mammary tumor model
Design: species or system Balb/c mice
Conditions: intravenous, 10 mg/kg body weight
Text: HC11 cells were infected with the pBabe-puro retrovirus as described in Morgenstern and Land (1990) Nucl. Acids Res. 18:3587-3596. Cells were either infected with the pBabe-puro encoding oncogenic NeuT (pBabe-puro NeuT) or control pBabe-puro. In this case, oncogenic activation is by the ErbB2 receptor tyrosine kinase (RTK). The receptor is constitutively activated in a ligand-independent manner due to spontaneous dimerization.
High-titer, helper-free recombinant retroviruses were produced from BOSC-23 cells transiently transfected with plasmid DNA, using the CaPO4 technique, as described in Pear et al. (1993) Proc. Natl. Acad. Sci. 90:8392-8396. HC11 cells were infected by exposure to filtered conditioned medium from 24-48 h transfected BOSC-23 cultures, in the presence of 40 μg/ml polybrene. One day later the medium was replaced with fresh virus-containing medium. Cells were trypsinized, split 1:2 into HC11 growth medium containing 0.75 μg/ml puromycin and selected for 3-4 days. One day before harvesting, the cells were cultured in the absence of puromycin, trypsinized cells were washed, resuspended at 0.5-1.0×10^6 cells/10 μl PBS and implanted in the fat pad as described in below.
All experiments were performed with Balb/c mice. Transplants were performed on 8-10 week-old females. The anesthetized mouse was pinned on a cork board and scrubbed with 70% ethanol. […]

SMILES: CC(=O)O[C@H]1C(=O)[C@@]2(C)[C@H]([C@H](OC(=O)c3ccccc3)[C@]3(O)C[C@H](OC(=O)[C@H](O)[C@@H](NC(=O)c4ccccc4)c4ccccc4)C(C)=C1C3(C)C)[C@]1(OC(C)=O)CO[C@@H]1C[C@@H]2O [Taxol]
- reduction of tumor growth or cell proliferation: no significant reduction

Source: patent US20050214220A1, “Tumor model” (vivoPharm Pty Ltd., priority 2004, published 2005)
